Tested on: HFD-fed C57BL/6 mice
Assay: Metabolic profile of HFD-fed mice (diet-induced obesity)
Assay type: in vivo
Conditions: for non-fasting blood glucose level: 50 mg/kg 3 times a week
Method: FIG. 12 indicates the improvement of the metabolic profile of HFD-feed mice by MSL-7: (FIG. 12A) Confocal microscopic result of HeLa cells transfected with tandem mRFP-GFP-LC3 and treated with MSL-7 in which red puncta indicates autophagolysosome. (FIG. 12B, 12C) 8 week old male C57BL/6 mice were fed with HFD or normal chow diet (NCD) for 8 weeks, and then 50 mg/kg MSL-7 was administered three times a week for 8 weeks. Non-fasting glucose level (FIG. 12B) and body weight (FIG. 12C) were monitored. (FIG. 12D) IPGTT. (FIG. 12E) AUC curve of (FIG. 12D). (FIG. 12F) ITT. (FIG. 12G) AUC curve of (FIG. 12F).
Screening of autophagy enhancer. […] Luciferase assay. Firefly and Renilla luciferase assays were conducted using the Dual-Luciferase Reporter Assay System (Promega) according to the manufacturer's recommendation. In brief, cells were lysed in 1× lysis buffer and subjected to a single round of freezing/thawing. Firefly luciferase was determined after mixing 5 μl of lysate with 25 μl of Luciferase Assay Reagent II. Renilla luciferase was then determined after further addition of 20 ul of Stop&Glo Reagent. Cell culture and media and drugs treatment. HeLa, TFEB-GFP-HeLa, SK-HEP1 (hepatoma cell line) and Hepa1c1c7 (hepatoma cell line) cells were cultured in the following media: (normal) Dulbecco's modified Eagle's medium (DMEM, Sigma-Aldrich) supplemented with 10% FBS and 1% penicillin/streptomycin; (starvation) HBSS media with Ca and Mg supplemented with 10 mM HEPES; Drugs treatment: MSL compound (50-100 μM); Rapamycin ([…]); Torin-1 (1 μM); Bafilomycin (100 nM); Cyclosporin A (10 μM); and FK506 (5 μM). Cells were treated with oleic acid (400 μM) and palmitic acid (400 μM) for 24 h. Where indicated, cells were washed off with HBSS and replaced by DMEM with or without MSL for 16 h. INS-1 cells, a insulinoma cell line of […] were cultured as described previously (Kim et al., 2014 ibid) in the presence or absence of bafilomycin and treated with MSL-7. Lactate dehydrogenase (LDH) assay. Cytotoxicity was determined by the measurement of LDH release in cell culture media using the LDH kit (Roche), according to the protocol from the manufacturer. Transfection and plasmids. Cells were transiently transfected with DNA plasmids 3×FLAG-hTFEB (A Ballabio), FYVE-dsRed (Cantley LC), RFP-LC3 or mRFP-GFP-LC3 using lipofectamine 2000 (Invitrogen) according to the protocol from the manufacturer. INS-1 cells were transfected with prepro-mIAPP-HA or prepro-hIAPP-HA using jetPEIDNA according to the manufacturer's protocol. Imaging and image quantification. Imaging was performed with a ×40 objective on an LSM780 confocal microscope (Zeiss). Image analysis (spot count per cell) was performed using Image J. When indicated, cells were stained for lipid droplets with BODIPY 493/503 (Invitrogen, […], 20 min) according to the manufacturer's methods. Formation of acidic vesicular organelles was quantitated by staining the cells with acridine orange (Invitrogen, 5 ug/ml, 10 min). Antibodies and western blotting. Cells or tissues were solubilized in lysis buffer supplemented with protease and phosphatase inhibitors and protein concentration was measured by the Bradford method. Ten to 30 micrograms were loaded on 4-12% Bis-Tris gel (NUPAGE, Invitrogen) or 8-15% SDS-PAGE, transferred to PVDF membranes and analyzed by western blot using the ECL method (Pierce). The following antibodies were used: LC3 (Novus NB100-2331, 1:1,000), p62 (Progen GP62-C, 1:1,000), b-actin (Santa Cruz sc-47778, 1:5,000), FLAG (Sigma-Aldrich F1804, 1:2,000), 70S6K (Cell Signaling 9202S, 1:1000), p-70S6K (Cell Signaling 9206S, 1:1000), mTOR (Cell Signaling 2983, 1:1000), pmTOR (Cell Signaling 2971S, 1:1000), TFEB (Cell Signaling 4240, 1:1000). Protein levels were quantified by using ImageJ software analysis. RNA extraction, RT and real-time RT-PCR. […]

SMILES | non-fasting blood glucose level (HFD, 8 weeks) | area under the curves (AUCs) of IPGTT and ITT (HFD, 8 weeks) | body weight (HFD, 8 weeks) | glucose tolerance / glucose intolerance (IPGTT) (HFD, 8 weeks) | insulin sensitivity (ITT) (HFD, 8 weeks) | glucose profile of lean or chow-fed mice (lean or chow-fed mice)
COc1oc(-c2ccccc2Cl)nc1S(=O)(=O)c1ccccc1 [MSL-7, 2-(2-chlorophenyl)-5-methoxy-4-(phenylsulfonyl) oxazole] | significantly reduced | reduced | without changing the body weight | significantly improved | significantly improved | does not affect
CSc1oc(-c2ccccc2)nc1S(=O)(=O)c1ccc(F)cc1 [MSL] | reduced non-fasting blood glucose level and glucose intolerance in mice fed high-fat diet (HFD). however, statistical significance was not achieved for most comparisons | – | – | reduced non-fasting blood glucose level and glucose intolerance in mice fed high-fat diet (HFD). however, statistical significance was not achieved for most comparisons | – | –

Source: patent publication US10881642B2, “Autophagy enhancer and use thereof” (Industry-Academic Cooperation Foundation, Yonsei University, priority 2016, dated 2021)
